Laboratory results: ChEMBL document CHEMBL1201862, “PubChem BioAssay data set” (2004)
The source made the active and inactive calls.

Assays:
[1] = control 3'UTR Renilla luciferase suppression, dose response, counter-screen for Shn3 inhibitor project, cell-based, Clone20-Shn3RL, cherry-picked (AID 624133); assay type: functional
Paired box protein Pax-8 = Paired box protein Pax-8 (Homo sapiens, UniProt Q06710); test: inhibitors of PAX8-driven TPO luciferase reporter, dose response, RMG-I cells, cherry-pick (AID 687027); assay type: functional, cell-based;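 further: luciferase reporter driven by Pax8 target thyroperoxidase promoter measured by SteadyGlo luminescence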
[2] = growth suppression of PTEN-null colon cells, dose response, cell-based, HCT116 PTEN knockout (AID 1047); assay type: functional;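 further: HCT116 colon tumor cells with PTEN knocked out; cells exposed to compound for 60 hours before readout; potency for loss of cell viability measured by luminescence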
[3] = growth suppression of beta-catenin-knockout colon cells, dose response, cell-based, HCT116, human colon tumor (AID 1045); assay type: functional;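 further: HCT116 colon tumor cells with beta catenin knocked out; cells exposed to compound for 60 hours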
[4] = HepG2 cell cytotoxicity, dose response, cytotoxicity control for Shn3 inhibitor project, CellTiter-Glo, cherry-picked (AID 624134); assay type: functional, cell-based
[5] = Shn3 3'UTR reporter inhibitors, dose response, cell-based, Clone20 osteoblasts, firefly luciferase, cherry-picked (AID 624132); assay type: functional;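 further: firefly luciferase luminescence from reporter carrying the Shn3 3'UTR in osteoblasts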
[6] = HepG2 cell cytotoxicity, dose response, cytotoxicity control, ATP luminescence, cherry-pick, activator set 2 (AID 1053143); assay type: functional, cell-based
HeLa = test: HeLa cell cytotoxicity, dose response, cytotoxicity control, ATP luminescence, cherry-pick samples (AID 687004); assay type: functional, cell-based; conditions: Homo sapiens
[7] = inhibitors of firefly luciferase expression or activity, dose response, H4 neuroglioma cells, luminescence (AID 1990); assay type: functional, cell-based
[8] = biological target: Fructose-bisphosphate aldolase (Mycobacterium tuberculosis, UniProt P9WQA3); test: Fluorescence-based biochemical high throughput dose response assay for inhibitors of the fructose-bisphosphate aldolase (FBA) of M. tuberculosis.; assay type: functional
[9] = biological target: T1, Replicative DNA helicase DnaB (Mycobacterium tuberculosis, UniProt P9WMR3); test: DnaB intein splicing inhibitors, dose response, biochemical, cell-free fluorescence (AID 449749); assay type: functional
T1 sequence (P9WMR3 whole entry): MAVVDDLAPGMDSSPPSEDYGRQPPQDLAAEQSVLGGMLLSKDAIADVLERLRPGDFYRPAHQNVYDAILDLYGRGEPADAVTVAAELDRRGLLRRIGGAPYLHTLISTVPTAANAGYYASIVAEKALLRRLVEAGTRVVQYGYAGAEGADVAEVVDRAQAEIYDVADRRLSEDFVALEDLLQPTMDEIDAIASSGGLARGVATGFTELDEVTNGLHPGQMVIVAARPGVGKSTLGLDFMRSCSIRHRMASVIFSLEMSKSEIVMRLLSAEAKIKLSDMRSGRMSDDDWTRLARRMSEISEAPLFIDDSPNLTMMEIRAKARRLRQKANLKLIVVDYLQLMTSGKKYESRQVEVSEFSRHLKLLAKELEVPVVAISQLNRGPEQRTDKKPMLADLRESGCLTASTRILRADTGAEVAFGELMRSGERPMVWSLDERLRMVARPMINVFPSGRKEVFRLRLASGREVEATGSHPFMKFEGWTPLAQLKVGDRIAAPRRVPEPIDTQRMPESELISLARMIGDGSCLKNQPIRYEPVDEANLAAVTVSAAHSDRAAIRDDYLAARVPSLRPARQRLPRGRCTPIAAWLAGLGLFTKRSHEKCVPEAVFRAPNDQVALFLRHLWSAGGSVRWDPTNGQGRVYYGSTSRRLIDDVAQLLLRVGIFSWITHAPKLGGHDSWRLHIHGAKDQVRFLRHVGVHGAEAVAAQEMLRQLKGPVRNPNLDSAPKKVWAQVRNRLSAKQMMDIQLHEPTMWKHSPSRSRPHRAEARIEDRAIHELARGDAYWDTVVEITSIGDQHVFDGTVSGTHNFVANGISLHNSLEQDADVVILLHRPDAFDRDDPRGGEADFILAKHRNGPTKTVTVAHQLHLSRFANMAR

[10] = inhibitors of SNCA 5'UTR-driven reporter translation, confirmation, H4 neuroglioma cells, luminescence (AID 1988); assay type: functional, cell-based
[11] = cytotoxicity toward DRD oncogenic fibroblasts, dose response, cell-based, non-viral oncogenic, luminescence (AID 1934); assay type: functional; conditions: Homo sapiens
Streptococcus = test: Group A Streptococcus viability loss, dose response, counter-screen for streptokinase expression inhibitor project, luminescence, BacTiterGlo (AID 1915); assay type: functional, organism-based;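 further: potency for reduction of bacterial viability or growth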
Protein RecA = biological target: T2, Protein RecA (Mycobacterium tuberculosis, UniProt P9WHJ3); test: Fluorescence Cell-Free Homogeneous Dose Retest to Identify Inhibitors of RecA-Intein Splicing Activity. [Related pubchem assays (depositor defined):AID2097, AID2223, AID489010, AID492950]; assay type: functional
T2 sequence (P9WHJ3 whole entry): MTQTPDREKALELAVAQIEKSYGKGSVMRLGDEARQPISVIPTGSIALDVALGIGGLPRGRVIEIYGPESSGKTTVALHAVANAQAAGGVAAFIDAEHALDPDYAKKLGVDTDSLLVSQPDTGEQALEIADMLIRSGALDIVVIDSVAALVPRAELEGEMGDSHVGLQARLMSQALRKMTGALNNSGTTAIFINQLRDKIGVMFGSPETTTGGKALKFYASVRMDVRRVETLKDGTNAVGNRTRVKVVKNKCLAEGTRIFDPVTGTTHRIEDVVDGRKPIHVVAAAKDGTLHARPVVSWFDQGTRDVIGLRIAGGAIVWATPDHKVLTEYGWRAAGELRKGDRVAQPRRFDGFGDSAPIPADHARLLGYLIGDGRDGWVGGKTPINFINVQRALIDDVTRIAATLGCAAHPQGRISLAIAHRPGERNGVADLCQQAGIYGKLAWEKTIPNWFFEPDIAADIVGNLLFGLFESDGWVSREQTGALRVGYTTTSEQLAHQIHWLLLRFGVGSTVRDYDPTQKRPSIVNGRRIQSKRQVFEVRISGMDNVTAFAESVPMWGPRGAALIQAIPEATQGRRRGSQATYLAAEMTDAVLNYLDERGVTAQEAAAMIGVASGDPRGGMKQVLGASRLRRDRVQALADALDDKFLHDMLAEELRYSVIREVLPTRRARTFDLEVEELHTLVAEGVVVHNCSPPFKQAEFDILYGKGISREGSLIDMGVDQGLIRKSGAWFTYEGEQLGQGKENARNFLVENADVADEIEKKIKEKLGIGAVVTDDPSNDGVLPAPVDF

Streptokinase A = biological target: T3, Streptokinase A (Streptococcus pyogenes serotype M1, UniProt P10520); test: S. pyogenes streptokinase expression inhibitors, potency, dose response, plasminogen activation absorbance, OD405 (AID 1914); assay type: functional, Streptococcus pyogenes M1 GAS;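 further: secreted streptokinase activity via plasminogen activation per viability signal from cell pellet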
T3 sequence (P10520 whole entry): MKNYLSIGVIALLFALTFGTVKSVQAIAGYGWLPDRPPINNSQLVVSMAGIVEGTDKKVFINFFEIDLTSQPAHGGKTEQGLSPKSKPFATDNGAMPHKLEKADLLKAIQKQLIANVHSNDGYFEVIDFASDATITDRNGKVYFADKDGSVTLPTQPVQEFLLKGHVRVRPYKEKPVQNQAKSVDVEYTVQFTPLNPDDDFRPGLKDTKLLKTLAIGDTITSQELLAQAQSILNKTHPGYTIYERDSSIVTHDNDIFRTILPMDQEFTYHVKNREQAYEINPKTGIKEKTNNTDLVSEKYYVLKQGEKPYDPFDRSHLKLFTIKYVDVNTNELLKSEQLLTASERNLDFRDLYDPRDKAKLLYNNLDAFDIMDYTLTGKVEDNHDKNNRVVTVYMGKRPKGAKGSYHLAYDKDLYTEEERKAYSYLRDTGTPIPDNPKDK

[12] = system: Streptococcus sp. 'group A'; test: growth inhibition of control SK(-) GAS strain, dose response, counter-screen for streptokinase expression inhibitor project, luminescence, kanamycin, BacTiterGlo, confirmation (AID 1900); assay type: functional, organism-based
BJ [13] = test: cytotoxicity toward BJ-TERT-LT-ST fibroblasts, dose response, cell-based, RAS-independent, luminescence (AID 1935); assay type: functional; conditions: Homo sapiens;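 further: BJ fibroblasts immortalized with TERT plus LT and ST oncogenes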
[14] = Luminescence Cell-Based Dose Response HTS to Identify Inhibitors of 5'UTR Stem-Loop Driven Prion Protein mRNA Translation in H4 Neuroglioblastoma Cells. [Related pubchem assays: 1827 (Project Summary), 1813 (Primary HTS)]; assay type: functional
BJ [15] = test: cells; assay type: functional, cell-based; conditions: Homo sapiens
BJ [16] = test: cytotoxicity toward BJ-TERT fibroblasts, dose response, cell-based, RAS-independent, luminescence (AID 1933); assay type: functional; conditions: Homo sapiens
INS1 = test: beta cell apoptosis inhibitors, cytokine rescue, dose response, luminescence, retest (AID 449756); assay type: functional, cell-based; conditions: Rattus norvegicus;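 further: cell death triggered by IL-1 beta plus TNF-alpha plus IFN-gamma mixture; protective hits raise ATP signal compared with cytokine alone wells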
[17] = MC4R antagonists, dose response, counter-screen for LGR2 antagonist project, cell-based, plate reader, cherry pick (AID 743444); assay type: functional;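 further: transfected HEK 293 cells stimulated with alpha-MSH peptide; potency of inhibitors of the alpha-MSH evoked signal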
[18] = LGR2 antagonists, dose response, cell-based, HEK293, CRE-luciferase reporter, cherry pick, set 2 (AID 743343); assay type: functional;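 further: transfected cells were stimulated with diluted bursicon conditioned medium after compound addition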
[19] = biological target: T4, Oxysterols receptor LXR-beta (Homo sapiens, UniProt P55055); assay type: functional, cell-based;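 further: agonist activity at LXR measured by a cell-based luminescence readout across a dose range, run as a counterscreen for daf-12 agonists; HEK293 cells with Gal4-LXR fusion and GAL4-driven luciferase reporter; potency for activation of Gal4-LXR reporter so compounds are agonists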
T4 sequence (P55055 whole entry): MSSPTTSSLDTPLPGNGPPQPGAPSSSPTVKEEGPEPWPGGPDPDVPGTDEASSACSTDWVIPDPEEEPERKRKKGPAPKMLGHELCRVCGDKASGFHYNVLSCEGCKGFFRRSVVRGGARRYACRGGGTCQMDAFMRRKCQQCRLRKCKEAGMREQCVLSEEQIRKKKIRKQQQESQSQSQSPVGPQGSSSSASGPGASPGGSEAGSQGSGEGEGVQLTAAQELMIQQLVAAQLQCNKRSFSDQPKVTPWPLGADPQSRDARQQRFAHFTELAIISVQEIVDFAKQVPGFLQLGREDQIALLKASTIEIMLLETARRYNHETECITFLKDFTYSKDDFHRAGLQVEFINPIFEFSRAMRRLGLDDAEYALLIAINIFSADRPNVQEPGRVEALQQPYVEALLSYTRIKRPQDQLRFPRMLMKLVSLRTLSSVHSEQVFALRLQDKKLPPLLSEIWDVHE

[20] = HepG2 cell cytotoxicity, dose response, cytotoxicity control, plate reader, cherry-pick, antagonist series (AID 743416); assay type: functional, cell-based
[21] = A549 cell cytotoxicity, dose response, cytotoxicity control, plate reader, cherry-pick, antagonist series (AID 743412); assay type: functional, cell-based
[22] = human group III sPLA2 inhibitors, dose response, biochemical, QFRET, IC50 (AID 743457);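 further: green fluorescence rise as the enzyme cleaves BODIPY PC-A2 in liposomes; potency for inhibition of the enzyme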
Nonstructural protein 1 = Nonstructural protein 1 (Influenza A virus, UniProt Q194T2); assay type: functional, Influenza A virus (A/California/07/2009(H1N1))
[23] = ADAM10 protease inhibitors, dose response, selectivity assay for ADAM17 exosite inhibitor project, biochemical, FRET peptide substrate, recombinant human ADAM10 (AID 743259);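 further: ADAM10 enzyme cleaving a FRET peptide substrate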
[24] = biological target: Disintegrin and metalloproteinase domain-containing protein 17 (Homo sapiens, UniProt P78536); test: exosite inhibitors of ADAM17, dose response, biochemical (AID 743260)
Chain of Disintegrin and metalloproteinase domain-containing protein 17 (P78536 whole entry, the tested form may be a part): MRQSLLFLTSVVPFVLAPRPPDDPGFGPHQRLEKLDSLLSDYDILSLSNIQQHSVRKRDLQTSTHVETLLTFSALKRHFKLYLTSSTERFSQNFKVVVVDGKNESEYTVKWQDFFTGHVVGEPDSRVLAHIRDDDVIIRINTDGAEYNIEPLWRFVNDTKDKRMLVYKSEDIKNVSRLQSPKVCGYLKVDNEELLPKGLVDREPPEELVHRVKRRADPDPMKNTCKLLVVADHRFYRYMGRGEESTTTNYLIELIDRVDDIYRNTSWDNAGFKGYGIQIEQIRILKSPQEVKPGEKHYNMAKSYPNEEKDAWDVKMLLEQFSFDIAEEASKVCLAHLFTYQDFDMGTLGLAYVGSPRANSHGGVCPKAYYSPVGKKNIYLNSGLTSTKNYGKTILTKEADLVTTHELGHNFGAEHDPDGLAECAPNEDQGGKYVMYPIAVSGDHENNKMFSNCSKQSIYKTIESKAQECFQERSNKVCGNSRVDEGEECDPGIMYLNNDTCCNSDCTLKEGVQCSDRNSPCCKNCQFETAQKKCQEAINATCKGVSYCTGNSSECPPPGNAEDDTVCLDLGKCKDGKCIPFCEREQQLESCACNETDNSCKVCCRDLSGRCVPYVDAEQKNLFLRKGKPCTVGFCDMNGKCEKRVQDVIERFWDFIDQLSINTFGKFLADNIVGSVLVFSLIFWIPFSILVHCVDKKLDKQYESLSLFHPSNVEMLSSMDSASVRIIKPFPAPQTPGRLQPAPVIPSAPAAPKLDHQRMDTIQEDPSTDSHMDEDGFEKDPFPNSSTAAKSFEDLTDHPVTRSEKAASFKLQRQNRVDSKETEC

Chain of Fructose-bisphosphate aldolase (P9WQA3 whole entry): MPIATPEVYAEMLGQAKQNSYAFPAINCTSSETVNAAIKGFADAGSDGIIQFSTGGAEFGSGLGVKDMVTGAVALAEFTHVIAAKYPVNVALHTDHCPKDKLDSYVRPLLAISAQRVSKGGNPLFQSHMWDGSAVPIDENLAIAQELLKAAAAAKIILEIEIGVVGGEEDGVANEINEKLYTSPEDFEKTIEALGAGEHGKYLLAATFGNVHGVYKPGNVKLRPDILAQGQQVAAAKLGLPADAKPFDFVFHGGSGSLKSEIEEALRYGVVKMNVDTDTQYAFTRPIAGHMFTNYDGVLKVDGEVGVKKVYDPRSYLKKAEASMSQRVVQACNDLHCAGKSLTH
Chain of Paired box protein Pax-8 (Q06710 whole entry): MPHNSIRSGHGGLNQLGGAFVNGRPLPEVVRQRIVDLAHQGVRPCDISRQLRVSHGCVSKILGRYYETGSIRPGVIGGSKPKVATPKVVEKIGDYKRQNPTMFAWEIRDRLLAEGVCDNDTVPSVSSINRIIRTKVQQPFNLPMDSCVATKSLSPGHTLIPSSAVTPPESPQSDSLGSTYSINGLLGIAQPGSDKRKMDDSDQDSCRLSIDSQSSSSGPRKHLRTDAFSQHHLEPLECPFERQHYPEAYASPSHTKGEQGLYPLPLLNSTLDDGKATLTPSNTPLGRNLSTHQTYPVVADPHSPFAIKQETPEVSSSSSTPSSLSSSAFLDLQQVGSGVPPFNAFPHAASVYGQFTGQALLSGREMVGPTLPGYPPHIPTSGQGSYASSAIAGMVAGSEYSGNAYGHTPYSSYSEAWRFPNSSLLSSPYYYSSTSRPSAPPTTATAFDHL
Chain of Nonstructural protein 1 (Q194T2 whole entry): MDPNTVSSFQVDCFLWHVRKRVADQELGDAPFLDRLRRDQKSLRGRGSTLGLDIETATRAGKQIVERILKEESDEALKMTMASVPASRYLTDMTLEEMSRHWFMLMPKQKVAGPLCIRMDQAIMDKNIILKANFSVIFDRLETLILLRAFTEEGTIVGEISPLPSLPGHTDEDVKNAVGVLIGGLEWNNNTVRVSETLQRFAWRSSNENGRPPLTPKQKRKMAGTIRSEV

Compound: Cc1cccc(/C=C(\c2nc3ccccc3[nH]2)S(=O)(=O)c2ccccc2)c1
- AC50 [1]: 7.04 µM (active)
- AC50 (Paired box protein Pax-8): 4.1 µM (active)
- EC50 [2]: 2.33 µM (active)
- EC50 [3]: 2.37 µM (active)
- AC50 [4]: 24.5 µM (active)
- AC50 [5]: 4.5 µM (active)
- AC50 [6]: 11.1 µM (active)

Compound: CC(=O)c1sc(NC(=O)c2cc(-c3ccccc3)nn2-c2ccccc2)nc1C
- AC50 (HeLa): > 52 µM (inactive)

Compound: Cc1ccc(-c2cc(-c3ccc(C)cc3)[n+](-c3ccc(C(=O)[O-])cc3)c(-c3ccc(C)cc3)c2)cc1
- EC50 [7]: > 120 µM (not active)
- IC50 [8]: 1.86 µM (active)
- AC50 [9]: 38.2 µM (active)
- EC50 [10]: > 120 µM (not active)
- EC50 [11]: 8.62 µM (inconclusive)
- EC50 (Streptococcus): > 150 µM (not active)
- EC50 (Protein RecA): 40.5 µM (active)
- EC50 (Streptokinase A): > 150 µM (not active)
- EC50 [12]: 12.6 µM (active)
- EC50 (BJ [13]): 14.9 µM (inconclusive)
- EC50 [14]: 63.5 µM (active)
- EC50 (BJ [15]): 13.6 µM (active)
- EC50 (BJ [16]): 2.76 µM (active)
- AC50 (INS1): 6.34 µM (active)

Compound: Cc1ccc(-c2nc(-c3ccncc3)no2)cc1C
- AC50 [17]: 25.8 µM (active)
- AC50 [18]: 17.8 µM (active)
- EC50 [19]: > 67.5 µM (inactive)
- AC50 [20]: > 52 µM (inactive)

Compound: O=C(Nc1ccc(NC(=O)c2ccco2)nc1)c1ccco1
- AC50 [17]: 8.62 µM (active)
- AC50 [21]: > 52 µM (inactive)
- AC50 [18]: 6.67 µM (active)

Compound: CCN1C(=O)/C(=C2/C=Cc3ccccc3N2CC)SC1=S
- IC50 [22]: 94.1 µM (inactive)
- IC50 (Nonstructural protein 1): 9.45 µM (active)

Compound: O=C1CC(Nc2ccc3ccccc3c2)C(=O)N1Cc1ccccc1 (stereo not given)
- IC50 [23]: > 69.5 µM (inactive)
- IC50 [24]: > 69.5 µM (inactive)

Compound: COC(=O)c1c(NC(C)=O)sc(C(=O)Nc2ccccc2F)c1C
- AC50 [6]: 26 µM (active)

Compound: c1ccc2c(c1)c1c3n2CCNC3CCC1 (stereo not given)
- IC50 [22]: > 122 µM (inactive)
